# Source: publication PMC12910498 (ACS pharmacology & translational science, 2026)
# Values joined by “and” are separate entries in the source; they are usually repeats but may differ in a detail not shown here. Equal values may be shown once. Read-outs that look alike come from different tables or passages of the source.
# Columns and labels:
# [1] = molecular target: T1, human D2R long isoform (Homo sapiens, UniProt P14416); parameters: host or cells: CHO-K1; method as in PMID 30883109; settings: antagonist mode; previously reported; cited from earlier work
# T1 sequence (P14416 whole entry, canonical isoform): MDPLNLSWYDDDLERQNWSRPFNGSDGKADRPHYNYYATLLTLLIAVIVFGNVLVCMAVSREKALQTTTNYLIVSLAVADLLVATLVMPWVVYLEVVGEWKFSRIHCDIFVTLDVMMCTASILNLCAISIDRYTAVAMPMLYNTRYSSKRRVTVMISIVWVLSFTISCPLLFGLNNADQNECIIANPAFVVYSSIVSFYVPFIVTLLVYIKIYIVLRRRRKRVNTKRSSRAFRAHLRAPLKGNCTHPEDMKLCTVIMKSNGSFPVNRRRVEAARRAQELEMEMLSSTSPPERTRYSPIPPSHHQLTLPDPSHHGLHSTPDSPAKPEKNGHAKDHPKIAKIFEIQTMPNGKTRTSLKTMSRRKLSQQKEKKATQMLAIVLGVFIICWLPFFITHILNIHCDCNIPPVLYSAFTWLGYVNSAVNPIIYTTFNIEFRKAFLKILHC
# [2] = molecular target: T2, human D3R (Homo sapiens, UniProt P35462); parameters: host or cells: CHO-K1; method as in PMID 30883109; settings: previously reported, cited from earlier work
# T2 sequence (P35462 whole entry): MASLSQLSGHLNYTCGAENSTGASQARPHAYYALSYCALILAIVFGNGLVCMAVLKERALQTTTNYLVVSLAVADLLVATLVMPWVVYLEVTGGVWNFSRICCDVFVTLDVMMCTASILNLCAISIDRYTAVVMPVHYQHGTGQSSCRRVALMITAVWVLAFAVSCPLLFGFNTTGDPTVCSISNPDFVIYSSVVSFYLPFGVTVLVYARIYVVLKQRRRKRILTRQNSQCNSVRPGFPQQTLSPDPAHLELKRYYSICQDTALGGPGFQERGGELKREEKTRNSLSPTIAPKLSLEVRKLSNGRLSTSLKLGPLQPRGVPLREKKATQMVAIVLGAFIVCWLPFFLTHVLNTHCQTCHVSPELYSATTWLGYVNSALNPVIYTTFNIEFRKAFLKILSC
# [3] = molecular target: T3, human D4R (Homo sapiens, UniProt P21917); parameters: host or cells: CHO-K1; method as in PMID 30883109; settings: previously reported, cited from earlier work; for D4R Emax (%): agonist mode; for D4R Ant. (%): antagonist mode
# T3 sequence (P21917 1-419): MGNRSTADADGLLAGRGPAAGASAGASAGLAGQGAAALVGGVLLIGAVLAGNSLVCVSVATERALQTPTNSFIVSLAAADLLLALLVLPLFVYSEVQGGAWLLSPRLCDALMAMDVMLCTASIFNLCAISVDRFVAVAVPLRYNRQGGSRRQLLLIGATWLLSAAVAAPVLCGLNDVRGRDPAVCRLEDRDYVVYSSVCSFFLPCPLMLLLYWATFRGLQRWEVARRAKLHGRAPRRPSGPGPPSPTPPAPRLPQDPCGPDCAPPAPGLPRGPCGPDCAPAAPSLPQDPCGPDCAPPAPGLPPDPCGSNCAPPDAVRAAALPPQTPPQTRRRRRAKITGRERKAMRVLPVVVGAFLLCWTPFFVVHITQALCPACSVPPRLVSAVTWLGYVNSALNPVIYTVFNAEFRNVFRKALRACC
# [4] = Phase I metabolic stability in rat liver microsomes (with NADPH); type: in vitro ADME; settings: pH 7.4, presence of NADPH, mean ± SD, n = 3
# Method: (§1) We evaluated the Phase I metabolic stability of compounds 2−7 and 14−19 using rat and human liver microsomes, as previously described.[45]
# (§2) Phase I metabolic stability assays were conducted using rat and human liver microsomes as previously described[45],[70] with minor modifications. In brief, the reactions were carried out with 100 mM potassium phosphate buffer, pH 7.4, in the presence of NADPH regenerating system (1.3 mM NADPH, 3.3 mM glucose 6-phosphate, 3.3 mM MgCl2, 0.4 U/mL glucose-6-phosphate dehydrogenase, 50 μM sodium citrate). Negative controls without cofactors were assessed to determine the non-CYP-mediated metabolism. Compound disappearance was monitored over time using a liquid chromatography and tandem mass spectrometry (LC/MS) method. All reactions were performed in triplicate.
# (§3) Chromatographic analysis was performed on a Dionex ultra high-performance LC system coupled with Q Exactive Focus orbitrap mass spectrometer (Thermo Fisher Scientific Inc., Waltham MA). Separation was achieved using Agilent Eclipse Plus column (100 × 2.1 mm^2 i.d.; maintained at 35 °C) packed with a 1.8 μm C18 stationary phase. […] The total run time for each analyte was 6.5 min. Pumps were operated at a flow rate of 0.3 mL/min. The mass spectrometer controlled by Xcalibur software 4.0.27.13 (Thermo Scientific) was operated with a HESI ion source in positive ionization mode. Compounds were identified in the full-scan mode (from m/z 50 to 750) by comparing t = 0 samples with t = 30 min and t = 60 min samples.
# [5] = Phase I metabolic stability in human liver microsomes (with NADPH); type: in vitro ADME; settings: pH 7.4, presence of NADPH, mean ± SD, n = 3
# Method: as §1, §2, §3
# [6] = molecular target: T3, human D4R; settings: for D4R Ant. (%): cAMP, antagonist mode, 10 μM forskolin and 10 nM dopamine, normalized to spiperone; for Emax: read-out: D4R Emax (%)
# [7] = Pharmacokinetics study in rats (plasma and brain); type: in vivo, Sprague−Dawley rats; settings: rat, 5 mg/kg IP; for Kp / half-life / Tmax / AUC / Cmax: Sprague-Dawley; for Kp: brain and plasma, AUC brain/plasma, read-out: brain: Plasma ratio; for Kp / half-life: ip; for peak in vivo brain concentrations expected: from brain Cmax
# Method: Given their adequate in vitro stability profiles, we next evaluated the in vivo pharmacokinetic profiles of 14, 15, 17, and 18 in rats. Sprague−Dawley rats were dosed with 5 mg/kg (14, 15, 17) or 10 mg/kg (18), i.p., and plasma and brain levels of each drug were measured 0−6 h postdose.
# All animal experiments were performed following the protocols evaluated and approved by the Animal Care and Use Committee at Johns Hopkins University (Ethics Approval Number: RA24M403). Pharmacokinetic studies in Sprague−Dawley (SD) rats were conducted according to protocols approved. SD rats obtained from Harlan were maintained on a 12 h light−dark cycle with ad libitum access to food and water. Test compound was administered via i.p. injection at a dose of 10 mg/kg (100% saline vehicle, 10 mL/kg volume). The rats were sacrificed at specified time points (0.25, 0.5 h, 1, 2, 4, and 6 h) post drug administration. For the collection of plasma and brain tissue, animals were euthanized with CO2, and blood samples were collected in heparinized microtubes by cardiac puncture. Brains were dissected and immediately flash-frozen (−80 °C). Blood samples were spun at 2000g for 15 min, and plasma was removed and stored at −80 °C until analysis (as described below).
# Quantitation of triazole analogs 14, 15, 17, and 18 was performed using liquid chromatography with tandem mass spectrometry (LC/MS-MS) methods. Briefly, calibration standards were prepared using respective tissue (naïve plasma and brain) with additions of the test compounds. For quantifying the test compounds in the pharmacokinetic samples, plasma samples (20 μL) were processed using a single liquid extraction method by addition of 100 μL of acetonitrile containing internal standard (losartan: 0.5 μM), followed by vortex-mixing for 30 s and then centrifugation at 10,000g for 10 min at 4 °C. Brain tissues were diluted 1:5 w/v with acetonitrile containing losartan (0.5 μm) and homogenized, followed by vortex-mixing and centrifugation at 10,000g for 10 min at 4 °C. A 50 μL aliquot of the supernatant was diluted with 50 μL of water and transferred to 250 μL polypropylene autosampler vials sealed with Teflon caps. Two μL of the sample was injected into the LC/MS/MS system for analysis. Chromatographic analysis was performed using an Accela ultra high-performance system consisting of an analytical pump and an autosampler coupled with a TSQ Vantage mass spectrometer. […] The mobile phase consisted of 0.1% formic acid in acetonitrile and 0.1% formic acid in water with gradient elution, starting with 10% organic phase (from 0 to 1 min) linearly increasing to 95% (from 1 to 2 min), and re-equilibrating to 10% by 3 min. The total run time for each analyte was 3.5 min. Pumps were operated at a flow rate of 0.4 mL/min. […] Plasma concentrations (nmol/mL) as well as brain tissue concentrations (nmol/g) were determined and plots of mean plasma concentration versus time were constructed. Noncompartmental analysis modules in Phoenix WinNonlin version 7.0 (Certara USA, Inc., Princeton, NJ) were used to quantify exposures (AUC0−t) and half-life (t1/2).
# [8] = molecular target: T4, D1 (Homo sapiens, UniProt P21728); assay: PDSP primary screen and secondary assay, D1; type: binding; settings: 10 µM compound
# T4 construct: Psychoactive Drug Screening Program (PDSP)
# T4 sequence (P21728 whole entry): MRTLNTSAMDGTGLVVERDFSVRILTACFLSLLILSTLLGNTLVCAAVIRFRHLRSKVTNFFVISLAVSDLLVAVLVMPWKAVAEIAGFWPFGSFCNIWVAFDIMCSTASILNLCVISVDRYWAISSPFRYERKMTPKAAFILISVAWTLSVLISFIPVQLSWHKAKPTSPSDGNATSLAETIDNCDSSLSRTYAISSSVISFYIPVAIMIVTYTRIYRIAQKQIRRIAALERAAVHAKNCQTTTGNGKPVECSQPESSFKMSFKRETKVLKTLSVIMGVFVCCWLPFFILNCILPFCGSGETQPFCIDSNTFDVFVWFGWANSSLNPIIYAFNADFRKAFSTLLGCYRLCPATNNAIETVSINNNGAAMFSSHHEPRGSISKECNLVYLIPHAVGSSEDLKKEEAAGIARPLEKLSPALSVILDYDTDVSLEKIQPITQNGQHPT
# Excerpt: (§4) Receptor Primary Secondary Primary Secondary Primary Secondary Primary Secondary screen assay screen assay screen assay screen assay […]
# (§5) inhibition in primary assessment.
# [9] = molecular target: T5, D5 (Homo sapiens, UniProt P21918); assay: PDSP primary screen, D5; type: binding; settings: 10 µM compound
# T5 construct: Psychoactive Drug Screening Program (PDSP)
# T5 sequence (P21918 whole entry): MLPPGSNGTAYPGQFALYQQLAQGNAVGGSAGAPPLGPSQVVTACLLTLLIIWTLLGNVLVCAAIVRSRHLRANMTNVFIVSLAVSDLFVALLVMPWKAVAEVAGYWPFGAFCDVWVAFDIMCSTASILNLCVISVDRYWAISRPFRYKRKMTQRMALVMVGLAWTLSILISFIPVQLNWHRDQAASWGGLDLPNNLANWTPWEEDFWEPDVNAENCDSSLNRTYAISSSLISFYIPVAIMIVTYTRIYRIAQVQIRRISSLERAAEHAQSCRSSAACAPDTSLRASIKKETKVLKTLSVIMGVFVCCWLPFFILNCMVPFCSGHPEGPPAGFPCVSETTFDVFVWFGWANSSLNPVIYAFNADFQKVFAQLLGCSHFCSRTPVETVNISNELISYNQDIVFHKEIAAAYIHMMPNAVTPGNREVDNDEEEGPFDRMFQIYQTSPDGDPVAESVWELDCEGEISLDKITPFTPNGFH
# Excerpt: as §4, §5
# [10] = molecular target: T1, human D2R long isoform; assay: DiscoverX PathHunter β-arrestin recruitment assay, D2R; settings: for Emax: read-out: D2R Emax (%)
# [11] = molecular target: T2, human D3R; assay: DiscoverX PathHunter β-arrestin recruitment assay, D3R; settings: for D3R Ant. (%): antagonist mode, EC80 dopamine (1 μM), normalized to spiperone; for Emax: read-out: D3R Emax (%)
# [12] = molecular target: T3, human D4R; assay: DiscoverX PathHunter β-arrestin recruitment assay, D4R; settings: for D4R average activity at the highest tested dose: at 100 μM (Emax ND); for D4R Ant. (%): antagonist mode, EC80 dopamine (1 μM), normalized to spiperone
# [13] = brain, 5 mg/kg, brain, read-out: half-life (h) brain (converted)
# [14] = plasma and brain, 5 mg/kg, tissue not specified, read-out: half-life (converted)
# [15] = plasma, 5 mg/kg, plasma, read-out: half-life (h) plasma (converted)
# [16] = brain, read-out: Tmax (h) brain
# [17] = plasma, read-out: Tmax (h) plasma
# [18] = antagonist mode, EC80 dopamine (1 μM), normalized to spiperone
smiles,measurement,setting,value
"Cc1cccc(NC(=O)CN2CCC(c3ccccn3)CC2)c1 [Compound 1, reference compound]",D2R Ant (%),[1],94.8 ± 2.8%
same,EC50,[2]; agonist mode,> 100000 nM
same,IC50,[2]; antagonist mode,> 100000 nM
same,D4R Emax (%),[3],22.5 ± 4.0%
same,D4R Ant. (%),[3],81.7 ± 2.7%
Cc1cccc(NC(=O)CN2CCC(c3ccccc3)CC2)c1 [Compound 5],half-life,[4],1.99 ± 2.82 min
same,half-life,[5],10.8 ± 0.57 min
same,D2R Ant (%),[1],99.7 ± 0.3%
same,D4R Emax (%),[3],14 ± 0.3%
same,D4R Ant. (%),[3],93% and 93.3 ± 1.8%
same,EC50,[6],7.54 ± 2.21 nM
same,IC50,[6],42.4 ± 10.6 nM
same,D4R Ant. (%),[6],47 ± 1%
same,Emax,[6],42 ± 8%
"Cc1cccc(-n2cc(CN3CCC(c4ccccc4)CC3)nn2)c1 [Compound 14, 4-Phenyl-1-((1-(m-tolyl)-1H-1,2,3-triazol-4-yl)methyl)-piperidine]",half-life,[4],13.4 ± 0.44 min
same,half-life,[5],63.3 ± 2.98 min
same,Kp,[7]; 5 mg/kg,0.76
same,half-life,[7]; [13],0.4 h
same,half-life,[7]; [14],≤ 0.4 h
same,half-life,[7]; [15],0.37 h
same,Tmax,[7]; [16],0.25 h
same,AUC,[7]; plasma,1.56 ± 0.2 µM·h
same,Cmax,[7]; plasma,2.89 ± 0.57 µM
same,Tmax,[7]; [17],0.25 h
same,AUC brain,[7]; brain,1.19 ± 0.10 nmol·h/g
same,Cmax brain,"[7]; brain, 5 mg/kg",2.16 ± 0.21 nmol/g
same,peak in vivo brain concentrations expected,[7],greater than 2.8 μM
same,inhibition at 10 µM,[8],20.2%
same,inhibition at 10 µM,[9],16%
same,IC50,[10],6090 ± 1340 nM
same,D2R Ant (%),[10]; [18],112 ± 3%
same,IC50,[11],6300 ± 2100 nM
same,D3R Ant. (%),[11],81.6 ±0.3%
same,EC50,[12],> 100000 nM
same,D4R average activity at the highest tested dose,[12]; agonist mode,ND (12% at 100 μM)
same,D4R Ant. (%),[12],93.3 ± 5.9%
same,EC50,[6],44.5 ± 17.4 nM
same,IC50,[6],84.6 ± 15.6 nM
same,D4R Ant. (%),[6],63 ± 2%
same,Emax,[6],30 ± 5%
"Cc1cccc(-n2cc(CN3CCN(c4ccccn4)CC3)nn2)c1 [Compound 15, 1-(Pyridin-2-yl)-4-((1-(m-tolyl)-1H-1,2,3-triazol-4-yl)-methyl)-piperazine]",half-life,[4],32.9 ± 1.16 min
same,half-life,[5],61.4 ± 7.27 min
same,Kp,[7]; 5 mg/kg,0.72
same,half-life,[7]; [13],1.02 h
same,half-life,[7]; [14],> 1.1 h
same,half-life,[7]; [15],1.09 h
same,Tmax,[7]; [16],0.25 h
same,AUC,[7]; plasma,2.65 ± 0.46 µM·h
same,Cmax,[7]; plasma,3.28 ± 1.26 µM
same,Tmax,[7]; [17],0.25 h
same,AUC brain,[7]; brain,1.91 ± 0.31 nmol·h/g
same,Cmax brain,[7]; brain,1.83 ± 0.68 nmol/g
same,peak in vivo brain concentrations expected,[7],greater than 1.8 μM
same,inhibition at 10 µM,[8],2.16%
same,inhibition at 10 µM,[9],1.76%
same,EC50,[10],> 100000 nM
same,IC50,[10],9050 ± 2500 nM
same,D2R Ant (%),[10]; [18],87.7 ± 2.6%
same,Emax,[10],16.5 ± 9.8%
same,EC50,[11],3600 ± 480 nM
same,Emax,[11],110 ± 29%
same,EC50,[12],> 100000 nM
same,IC50,[12],310 ± 49 nM
same,D4R average activity at the highest tested dose,[12]; agonist mode,ND (14% at 100 μM)
same,D4R Ant. (%),[12],82.8 ± 3.3%
same,EC50,[6],5.29 ± 1.39 nM
same,IC50,[6],57.6 ± 5.44 nM
same,D4R Ant. (%),[6],40 ± 1%
same,Emax,[6],43 ± 6%
"Cc1cccc(-n2cc(CN3CCN(c4ncccn4)CC3)nn2)c1 [Compound 16, 2-(4-((1-(m-Tolyl)-1H-1,2,3-triazol-4-yl)methyl)-piperazin-1-yl)pyrimidine]",half-life,[4],68.1 ± 9.51 min
same,half-life,[5],40.1 ± 1.91 min
same,EC50,[10],6870 ± 2500 nM
same,IC50,[10],19000 nM
same,D2R Ant (%),[10]; [18],73.2 ± 4.6%
same,Emax,[10],25.3 ± 4.9%
same,EC50,[11],> 100000 nM
same,IC50,[11],> 10000 nM
same,D3R Ant. (%),[11],105 ± 4%
same,Emax,[11],75 ± 14%
same,EC50,[12],> 100000 nM
same,IC50,[12],140 ± 35 nM
same,D4R average activity at the highest tested dose,[12]; agonist mode,ND (14% at 100 μM)
same,D4R Emax (%),"[12]; agonist mode, in comparison to dopamine",did not show partial agonist activity
same,D4R Ant. (%),[12],85.2 ± 2.4%
same,EC50,[6],7.68 ± 1.88 nM
same,IC50,[6],67.9 ± 11.3 nM
same,D4R Ant. (%),[6],45 ± 3%
same,Emax,[6],39 ± 7%
"CCc1cccc(-n2cc(CN3CCN(c4ccccn4)CC3)nn2)c1 [Compound 19, 1-((1-(3-Ethylphenyl)-1H-1,2,3-triazol-4-yl)methyl)-4-(pyridin-2-yl)piperazine]",half-life,[4],28 ± 0.56 min
same,half-life,[5],37.5 ± 0.68 min
"O=C(CCCN1CCC2(CC1)C(=O)NCN2c1ccccc1)c1ccc(F)cc1 [Spiperone, reference compound]",D2R Ant (%),[10],100 ± 0%
same,D4R Ant. (%),[12],100 ± 0%
same,D4R Ant. (%),[6],100 ± 0%
